Patent US8202879B2, “Quinazoline derivatives having tyrosine kinase inhibitory activity” (Shionogi & Co., Ltd., priority 2005, dated 2012)

Assays:
EGFR = biological target: T1, EGFR (Homo sapiens, UniProt P00533); assay: Enzyme inhibitory activity on EGFR (time resolution fluorescence, biotinylated poly-Glu-Tyr substrate); assay type: biochemical; conditions: EGFR purified from insect cell expression system; ATP solution 125 μM; room temperature, 60 minutes
T1 construct: purchased Carna Biosciences, Inc; host or cells: insect cell expression system
Method in brief: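 Insect-cell-expressed EGFR phosphorylated biotinylated poly-Glu-Tyr (4:1) for 60 min at room temperature in TBS with MgCl2, MnCl2, Na3VO4 and BSA. Enzyme 250 ng/ml, substrate 3.125 μg/ml and ATP 125 μM as working solutions. EDTA stop; Eu anti-phosphotyrosine/streptavidin-XL time-resolved fluorescence read; 10-point 4-fold dilutions.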

[1] = system: NCI-N87 cells (human stomach cancer cell strain); assay: in vivo anti-tumor assessment, NCI-N87 cells transplanted into mammary fat pad of nude mouse
Experimental: NCI-N87 cells (human stomach cancer cell strain) were transplanted into a mammary fat pad of a female nude mouse (BALB/cA Jcl-nu/nu, CLEA Japan, Inc) at 5×10^6 cells/mouse (day 0). On day 5, a long diameter and a short diameter of a tumor were measured with a caliper, and mice were divided into groups (N=6) so that a tumor size between groups became equal. A test compound (20, 80 mg/kg) suspended in a 0.5% methylcellulose (MC) solution was orally administered from day 5 on for 15 consecutive days, and the anti-tumor effect was expressed by a ratio (T/C %) of an average value of a tumor size between a compound-administered group (T) and a control (C, 0.5% MC) group on day 20.
Results of in vivo anti-tumor assessment of a compound VIII-11 are shown in Table 54, and results of in vivo anti-tumor assessment of a compound VIII-66 are shown in Table 55.

HER2 = biological target: T2, HER2 (Homo sapiens, UniProt P04626); assay: Enzyme inhibitory activity on HER2 (time resolution fluorescence, biotinylated poly-Glu-Tyr substrate); assay type: biochemical; conditions: HER2 purified from insect cell expression system; ATP solution 290 μM; room temperature, 60 minutes
T2 construct: purchased Carna Biosciences, Inc; host or cells: insect cell expression system
Method in brief: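 Insect-cell-expressed HER2 (1000 ng/ml working stock) with biotinylated poly-Glu-Tyr (4:1; 3.125 μg/ml stock) and ATP (290 μM solution) in TBS with MgCl2, MnCl2, Na3VO4 and BSA, 60 min at room temperature. 10-point 4-fold dilutions from a 1 mM top solution. Phosphotyrosine detected by TR-FRET with Eu-antibody and streptavidin-XL.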

BT-474 = assay: In vitro cell proliferation inhibition, WST assay; assay type: cell-based, human; conditions: BT-474 cells, cultured for 3 days, read-out: BT-474 (nM) proliferation inhibitory activity (IC50 value)
Experimental: Test of In Vitro Cell Proliferation Inhibition of Test Compound
As a human-derived cancer cell strain, BT-474 was used. Cells were all cultured in a 37° C., 5% CO2 incubator in a medium in which 10% bovine fetal serum (ICN) and 50 units ml penicillin/60 μg/ml streptomycin solution (GIBCO) were added to Dulbecco's Modified Essential Medium (DMEM, Nacalai Tesque, Inc).

[2] = day 20, 20 mg/kg orally for 15 consecutive days from day 5
[3] = day 20, 80 mg/kg orally for 15 consecutive days from day 5

T1 sequence (P00533 25-1210): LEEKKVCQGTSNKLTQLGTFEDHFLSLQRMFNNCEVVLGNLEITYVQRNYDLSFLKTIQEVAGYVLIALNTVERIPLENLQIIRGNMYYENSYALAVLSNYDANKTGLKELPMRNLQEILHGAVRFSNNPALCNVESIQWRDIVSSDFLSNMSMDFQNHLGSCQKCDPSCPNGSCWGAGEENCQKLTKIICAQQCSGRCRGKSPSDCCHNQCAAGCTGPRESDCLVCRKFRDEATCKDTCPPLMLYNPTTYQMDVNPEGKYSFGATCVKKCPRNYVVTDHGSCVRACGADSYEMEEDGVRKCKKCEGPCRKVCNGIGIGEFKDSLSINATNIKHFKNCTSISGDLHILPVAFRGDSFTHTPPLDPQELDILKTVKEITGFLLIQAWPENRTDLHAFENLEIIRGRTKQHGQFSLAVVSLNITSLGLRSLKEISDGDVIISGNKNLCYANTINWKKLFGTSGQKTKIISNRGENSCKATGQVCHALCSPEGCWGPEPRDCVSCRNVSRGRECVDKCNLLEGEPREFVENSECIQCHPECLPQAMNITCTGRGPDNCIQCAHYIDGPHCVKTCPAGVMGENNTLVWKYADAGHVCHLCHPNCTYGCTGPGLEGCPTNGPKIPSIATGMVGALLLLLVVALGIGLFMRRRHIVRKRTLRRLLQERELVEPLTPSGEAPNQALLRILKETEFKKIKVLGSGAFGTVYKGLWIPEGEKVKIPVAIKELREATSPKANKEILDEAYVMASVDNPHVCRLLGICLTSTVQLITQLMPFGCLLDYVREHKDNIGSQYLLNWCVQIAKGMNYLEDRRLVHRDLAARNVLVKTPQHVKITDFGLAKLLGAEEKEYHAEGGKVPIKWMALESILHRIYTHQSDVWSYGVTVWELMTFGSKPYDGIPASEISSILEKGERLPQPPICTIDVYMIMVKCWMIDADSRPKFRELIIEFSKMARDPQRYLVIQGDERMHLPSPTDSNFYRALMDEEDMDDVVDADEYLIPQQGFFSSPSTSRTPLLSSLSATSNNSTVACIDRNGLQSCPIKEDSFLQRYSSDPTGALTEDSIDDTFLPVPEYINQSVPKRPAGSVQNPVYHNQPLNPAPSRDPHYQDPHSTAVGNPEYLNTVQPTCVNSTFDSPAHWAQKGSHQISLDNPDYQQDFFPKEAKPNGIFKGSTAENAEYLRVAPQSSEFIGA
T2 sequence (P04626 23-1255): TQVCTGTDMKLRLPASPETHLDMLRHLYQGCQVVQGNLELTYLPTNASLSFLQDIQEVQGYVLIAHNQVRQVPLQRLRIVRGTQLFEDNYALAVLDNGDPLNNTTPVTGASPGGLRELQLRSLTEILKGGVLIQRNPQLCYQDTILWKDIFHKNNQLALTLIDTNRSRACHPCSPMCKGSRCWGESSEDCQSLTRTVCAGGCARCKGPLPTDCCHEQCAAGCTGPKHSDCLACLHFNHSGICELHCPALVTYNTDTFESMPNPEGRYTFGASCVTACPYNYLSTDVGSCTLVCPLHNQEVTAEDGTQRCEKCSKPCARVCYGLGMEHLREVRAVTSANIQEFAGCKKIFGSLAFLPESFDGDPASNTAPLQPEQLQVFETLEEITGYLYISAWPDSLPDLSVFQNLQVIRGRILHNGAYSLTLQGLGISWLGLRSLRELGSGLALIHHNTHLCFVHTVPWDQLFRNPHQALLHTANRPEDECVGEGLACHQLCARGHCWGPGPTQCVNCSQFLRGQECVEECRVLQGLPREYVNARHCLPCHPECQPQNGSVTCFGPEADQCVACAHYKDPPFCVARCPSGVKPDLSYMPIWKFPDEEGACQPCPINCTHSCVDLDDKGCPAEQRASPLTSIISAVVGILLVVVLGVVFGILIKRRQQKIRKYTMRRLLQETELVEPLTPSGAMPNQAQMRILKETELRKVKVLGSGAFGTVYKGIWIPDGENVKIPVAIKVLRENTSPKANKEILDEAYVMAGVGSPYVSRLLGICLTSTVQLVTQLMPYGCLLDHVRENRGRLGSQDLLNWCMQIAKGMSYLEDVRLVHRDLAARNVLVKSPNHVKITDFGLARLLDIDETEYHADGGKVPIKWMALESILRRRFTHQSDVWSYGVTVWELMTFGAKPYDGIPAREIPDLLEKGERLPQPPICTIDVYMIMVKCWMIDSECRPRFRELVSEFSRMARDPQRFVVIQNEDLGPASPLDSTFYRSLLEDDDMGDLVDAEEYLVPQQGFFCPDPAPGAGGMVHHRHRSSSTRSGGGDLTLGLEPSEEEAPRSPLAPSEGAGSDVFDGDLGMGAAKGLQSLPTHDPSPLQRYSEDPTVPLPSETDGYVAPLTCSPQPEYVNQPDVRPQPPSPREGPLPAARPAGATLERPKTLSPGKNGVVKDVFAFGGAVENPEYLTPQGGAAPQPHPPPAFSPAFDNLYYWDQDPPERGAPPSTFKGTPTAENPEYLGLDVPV

- IC50 (EGFR): 27 nM
- IC50 (HER2): 43 nM
- IC50 (BT-474): 8 nM
Compound: CC#C/C(=N\OCCN(C)CCO)c1ccc2ncnc(Nc3ccc(OCc4cccc(F)c4)c(Cl)c3)c2c1.Cl.Cl [VIII-66]
- Mean of tumor size ([1]; day 5 (start of administration, grouping), 20 mg/kg administrated group, oral, N=6): 134 mm^3
- Mean of tumor size ([1]; day 5 (start of administration, grouping), 80 mg/kg administrated group, oral, N=6): 150 mm^3
- Mean of tumor size [1, 2]: 154 mm^3
- T/C % (ratio of average tumor size, compound-administered group vs control group) [1, 2]: 32%
- Mean of tumor size [1, 3]: 17 mm^3
- T/C % (ratio of average tumor size, compound-administered group vs control group) [1, 3]: 4%
